Measurements reported in paper PMC7689250, “Synthetic Peptide Libraries Designed From a Minimal Alpha-Helical Domain of AS-48-Bacteriocin Homologs Exhibit Potent Antibacterial Activity” (Frontiers in Microbiology, 2020).
Residues, ends and D or L forms follow the SMILES beside them.

How the values were obtained:
E. coli (BL21) = type: cell-based, Escherichia coli; settings: for MBC: BL21; for MIC: BL21, 16 h
Protocol: (§1) Peptides were screened against Escherichia coli (BL21), Streptococcus pyogenes (M1T1 5448, hereby referred to as M1), Pseudomonas aeruginosa (PAO1), and Staphylococcus aureus (USA300). Overnight bacterial cultures were grown in optimal media for each species: Luria-Bertani (LB) broth for E. coli, P. aeruginosa, and S. aureus, and Todd-Hewitt (TH) broth for S. pyogenes. Cultures were pelleted and re-suspended in Mueller-Hinton (MH) broth for peptide screens or minimal inhibitory concentration (MIC) assays, with 1 × 10^6 CFU/mL bacteria added per well ([Wiegand et al., 2008]). MICs for each parent peptide were identified against each bacterial strain as previously described ([Fields et al., 2018]). Members of each peptide library were screened against each bacterial strain at half of the MIC of the corresponding parent peptide to identify library members with increased antimicrobial activity relative to the parent peptide. […] Minimal bactericidal concentrations (MBCs) were determined following the respective MIC assays by plating aliquots from wells corresponding to each peptide concentration from the 96-well plate used for the MIC on species-appropriate agar. Plates were incubated at 37°C overnight, and MBCs were identified as the lowest concentrations of peptide at which no colonies were obtained. A Synergy H1 Microplate Reader (BioTek, Winooski, VT, United States) was used to determine the MICs and identify peptides with greater antimicrobial activity than the corresponding parent peptide by measuring OD 600 of the bacterial cultures in 96-well microtiter plates.

S. pyogenes (M1) = type: cell-based, Streptococcus pyogenes; settings: for MBC: M1; for MIC: M1, 16 h
Protocol: as §1

S. aureus (USA300) = type: cell-based, Staphylococcus aureus; settings: for MBC: USA300; for MIC: USA300, 16 h
Protocol: as §1

P. aeruginosa (PAO1) = type: cell-based, Pseudomonas aeruginosa; settings: for MBC: PAO1; for MIC: PAO1, 16 h
Protocol: as §1

sheep erythrocytes = type: cell-based; settings: red cells of sheep, 1 h
Protocol: To determine if peptide variants were hemolytic, fresh defibrinated whole sheep blood (Hardy Diagnostics) was washed three times in cold PBS, and washed blood was diluted 1:25 in PBS. Treatments were applied at a 1:10 ratio of sample:blood, where the sample was either 10% Triton, PBS, or a specific peptide concentration corresponding to concentrations used in the MIC assays. Treatments were incubated with the blood for 1 h at 37°C. Following incubation, samples were centrifuged at […] for 10 min at 4°C, and the absorbance of the supernatants at 450 nm was measured on the Synergy H1 Microplate Reader to measure the release of hemoglobin. Percent hemolysis was quantified by normalizing to the negative and positive controls.

MIC (E. coli (BL21))	MIC (S. pyogenes (M1))	MIC (S. aureus (USA300))	MIC (P. aeruginosa (PAO1))	Structure (SMILES)	MBC (E. coli (BL21))	MBC (S. pyogenes (M1))	MBC (S. aureus (USA300))	MBC (P. aeruginosa (PAO1))	Percent Hemolysis (sheep erythrocytes)
2 µM	0.25 µM	4 µM	16 µM	CC[C@H](C)[C@H](NC(=O)[C@H](CCCCN)NC(=O)[C@H](CCCCN)NC(=O)CNC(=O)[C@H](CCC(=O)O)NC(=O)[C@H](CC(N)=O)NC(=O)[C@@H](NC(=O)[C@@H](NC(=O)[C@H](CCCCN)NC(=O)[C@H](CCCCN)NC(=O)[C@H](CC(C)C)NC(=O)[C@H](CCCNC(=N)N)NC(=O)[C@H](CC(N)=O)NC(=O)[C@H](Cc1ccccc1)NC(=O)[C@@H](NC(=O)[C@H](CCCCN)NC(=O)[C@H](CCC(=O)O)NC(=O)[C@@H](NC(=O)[C@H](Cc1c[nH]c2ccccc12)NC(=O)[C@H](C)N)[C@@H](C)O)[C@@H](C)CC)[C@@H](C)O)[C@@H](C)CC)C(=O)N[C@@H](C)C(=O)N[C@@H](CCCCN)C(=O)N[C@@H](CCCNC(=N)N)C(=O)N[C@@H](C)C(=O)N[C@@H](Cc1c[nH]c2ccccc12)C(=O)O [Syn-larvacin-40] (H-AWTEKIFNRLKKTINEGKKIAKRAW-OH; N-terminus and C-terminus assumed)	2 µM	4 µM	4 µM	16 µM	17.5%
1 µM	0.5 µM	2 µM	32 µM	CC[C@H](C)[C@H](NC(=O)[C@H](CCCCN)NC(=O)[C@H](C)NC(=O)[C@H](CCCNC(=N)N)NC(=O)[C@H](CCCCN)NC(=O)CNC(=O)[C@H](CCCCN)NC(=O)[C@H](CCC(=O)O)NC(=O)[C@H](CCC(N)=O)NC(=O)[C@@H](NC(=O)[C@H](CCCCN)NC(=O)[C@H](CCCCN)NC(=O)[C@H](CCCCN)NC(=O)[C@H](CC(C)C)NC(=O)[C@H](CCCNC(=N)N)NC(=O)[C@H](CCC(N)=O)NC(=O)[C@H](Cc1ccccc1)NC(=O)[C@@H](NC(=O)[C@@H](NC(=O)[C@H](CCC(=O)O)NC(=O)[C@H](CCCCN)NC(=O)CNC(=O)[C@H](C)N)[C@@H](C)O)[C@@H](C)CC)[C@@H](C)CC)C(=O)N[C@@H](C)C(=O)N[C@@H](Cc1c[nH]c2ccccc12)C(=O)O [Syn-larvacin-91] (H-AGKETIFQRLKKKIQEKGKRAKIAW-OH; N-terminus and C-terminus assumed)	2 µM	0.5 µM	2 µM	64 µM	23.4%
2 µM	1 µM	2 µM	64 µM	CC[C@H](C)[C@H](NC(=O)[C@H](CCCCN)NC(=O)[C@H](C)NC(=O)[C@H](CCCNC(=N)N)NC(=O)[C@H](CCCCN)NC(=O)[C@H](CCCCN)NC(=O)CNC(=O)[C@H](CCC(=O)O)NC(=O)[C@H](CCC(N)=O)NC(=O)[C@@H](NC(=O)[C@H](CCCCN)NC(=O)[C@H](CCCCN)NC(=O)[C@H](CCCCN)NC(=O)[C@H](CC(C)C)NC(=O)[C@H](Cc1ccccc1)NC(=O)[C@H](CCC(N)=O)NC(=O)[C@H](CCCNC(=N)N)NC(=O)[C@@H](NC(=O)[C@@H](NC(=O)[C@H](CCC(=O)O)NC(=O)[C@H](CCCCN)NC(=O)CNC(=O)[C@H](C)N)[C@@H](C)O)[C@@H](C)CC)[C@@H](C)CC)C(=O)N[C@@H](C)C(=O)N[C@@H](Cc1c[nH]c2ccccc12)C(=O)O [Syn-larvacin-92] (H-AGKETIRQFLKKKIQEGKKRAKIAW-OH; N-terminus and C-terminus assumed)	2 µM	1 µM	8 µM	128 µM	29.9%
